In PubChem BioAssay AID2060343 (Molecular Pharmacology Branch, DTP, NCI, 2025):

System: 138582-337-R-J1-PDC spheroids with HUVEC/MSC, viability
Experiment: Anticancer human tumor 138582-337-R-J1-PDC patient-derived Merkel cell tumor cell line growth inhibition [IpAb]
Conditions: for IC50: curve of first compound; for viability, T/C: stronger effect = lower value
Method in brief: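 Spheroids of 60% malignant cells, 25% HUVEC and 15% MSC were exposed to targeted agents combined with ipatasertib or abemaciclib. Doses started at or near clinical Cmax (10 microM when unknown) and fell in half-log steps.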

[1] = second compound 0.01 µM, first compound 0.00949 µM
[2] = second compound 0.01 µM, first compound 0.03 µM
[3] = second compound 0.01 µM, first compound 0.0949 µM
[4] = second compound 0.01 µM, first compound 0.3 µM
[5] = second compound 0.01 µM, first compound 0.949 µM
[6] = second compound 0.01 µM, first compound 3 µM
[7] = second compound 0.0316 µM, first compound 0.00949 µM
[8] = second compound 0.0316 µM, first compound 0.03 µM
[9] = second compound 0.0316 µM, first compound 0.0949 µM
[10] = second compound 0.0316 µM, first compound 0.3 µM
[11] = second compound 0.0316 µM, first compound 0.949 µM
[12] = second compound 0.0316 µM, first compound 3 µM
[13] = second compound 0.1 µM, first compound 0.00949 µM
[14] = second compound 0.1 µM, first compound 0.03 µM
[15] = second compound 0.1 µM, first compound 0.0949 µM
[16] = second compound 0.1 µM, first compound 0.3 µM
[17] = second compound 0.1 µM, first compound 0.949 µM
[18] = second compound 0.1 µM, first compound 3 µM
[19] = second compound 0.316 µM, first compound 0.00949 µM
[20] = second compound 0.316 µM, first compound 0.03 µM
[21] = second compound 0.316 µM, first compound 0.0949 µM
[22] = second compound 0.316 µM, first compound 0.3 µM
[23] = second compound 0.316 µM, first compound 0.949 µM
[24] = second compound 0.316 µM, first compound 3 µM
[25] = second compound 1 µM, first compound 0.00949 µM
[26] = second compound 1 µM, first compound 0.03 µM
[27] = second compound 1 µM, first compound 0.0949 µM
[28] = second compound 1 µM, first compound 0.3 µM
[29] = second compound 1 µM, first compound 0.949 µM
[30] = second compound 1 µM, first compound 3 µM
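Further: spheroids exposed to compounds for seven days.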
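Wherever viability, T/C is given: 100% = DMSO vehicle control viability.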

## Cn1cnc2c(F)c(Nc3ccc(Br)cc3Cl)c(C(=O)NOCCO)cc21 + CCN1CCN(Cc2ccc(Nc3ncc(F)c(-c4cc(F)c5nc(C)n(C(C)C)c5c4)n3)nc2)CC1
Second compound 0.01 µM
  IC50: > 3000 nM
Second compound 0.0316 µM
  IC50: > 3000 nM
Second compound 0.1 µM
  IC50: > 3000 nM
Second compound 0.316 µM
  IC50: > 3000 nM
Second compound 1 µM
  IC50: 1880 nM
[1]
  viability, T/C: 102%
[2]
  viability, T/C: 94.5%
[3]
  viability, T/C: 75.3%
[4]
  viability, T/C: 81.2%
[5]
  viability, T/C: 94%
[6]
  viability, T/C: 93.1%
[7]
  viability, T/C: 94.8%
[8]
  viability, T/C: 91%
[9]
  viability, T/C: 67.1%
[10]
  viability, T/C: 79.6%
[11]
  viability, T/C: 86.8%
[12]
  viability, T/C: 88.3%
[13]
  viability, T/C: 102%
[14]
  viability, T/C: 88.2%
[15]
  viability, T/C: 78.3%
[16]
  viability, T/C: 68.7%
[17]
  viability, T/C: 76.9%
[18]
  viability, T/C: 73.1%
[19]
  viability, T/C: 88.8%
[20]
  viability, T/C: 90.8%
[21]
  viability, T/C: 83%
[22]
  viability, T/C: 66%
[23]
  viability, T/C: 72.9%
[24]
  viability, T/C: 56.3%
[25]
  viability, T/C: 96.1%
[26]
  viability, T/C: 90.2%
[27]
  viability, T/C: 78%
[28]
  viability, T/C: 74.5%
[29]
  viability, T/C: 73.1%
[30]
  viability, T/C: 37.1%

## Cn1cnc2c(F)c(Nc3ccc(Br)cc3Cl)c(C(=O)NOCCO)cc21 + CC(C)NCC(C(=O)N1CCN(c2ncnc3c2C(C)CC3O)CC1)c1ccc(Cl)cc1
Second compound 0.1 µM
  IC50: > 3000 nM
Second compound 0.316 µM
  IC50: 1760 nM
Second compound 1 µM
  IC50: 328 nM
Second compound 3.16 µM
  IC50: 63.7 nM
Second compound 10 µM
  IC50: < 9.49 nM
[13]
  viability, T/C: 97.8%
[14]
  viability, T/C: 88.1%
[15]
  viability, T/C: 85.2%
[16]
  viability, T/C: 83.8%
[17]
  viability, T/C: 101%
[18]
  viability, T/C: 105%
[19]
  viability, T/C: 74.9%
[20]
  viability, T/C: 73.3%
[21]
  viability, T/C: 69.6%
[22]
  viability, T/C: 55%
[23]
  viability, T/C: 56.6%
[24]
  viability, T/C: 46.7%
[25]
  viability, T/C: 58.9%
[26]
  viability, T/C: 68.2%
[27]
  viability, T/C: 56%
[28]
  viability, T/C: 47.2%
[29]
  viability, T/C: 42.4%
[30]
  viability, T/C: 22.4%
Second compound 3.16 µM, first compound 0.00949 µM
  viability, T/C: 57.1%
Second compound 3.16 µM, first compound 0.03 µM
  viability, T/C: 64%
Second compound 3.16 µM, first compound 0.0949 µM
  viability, T/C: 42.5%
Second compound 3.16 µM, first compound 0.3 µM
  viability, T/C: 33.4%
Second compound 3.16 µM, first compound 0.949 µM
  viability, T/C: 27.5%
Second compound 3.16 µM, first compound 3 µM
  viability, T/C: 11.3%
Second compound 10 µM, first compound 0.00949 µM
  viability, T/C: 46.1%
Second compound 10 µM, first compound 0.03 µM
  viability, T/C: 46.7%
Second compound 10 µM, first compound 0.0949 µM
  viability, T/C: 33.6%
Second compound 10 µM, first compound 0.3 µM
  viability, T/C: 24.9%
Second compound 10 µM, first compound 0.949 µM
  viability, T/C: 18.6%
Second compound 10 µM, first compound 3 µM
  viability, T/C: 3.49%

## CC(C)(C)c1cnc(CSc2cnc(NC(=O)C3CCNCC3)s2)o1 + CCN1CCN(Cc2ccc(Nc3ncc(F)c(-c4cc(F)c5nc(C)n(C(C)C)c5c4)n3)nc2)CC1
Second compound 0.01 µM
  IC50: 145 nM
Second compound 0.0316 µM
  IC50: 124 nM
Second compound 0.1 µM
  IC50: 120 nM
Second compound 0.316 µM
  IC50: 99.5 nM
Second compound 1 µM
  IC50: 67.7 nM
[1]
  viability, T/C: 107%
[2]
  viability, T/C: 109%
[3]
  viability, T/C: 79%
[4]
  viability, T/C: 0.85%
[5]
  viability, T/C: 0.5%
[6]
  viability, T/C: 0.66%
[7]
  viability, T/C: 96.7%
[8]
  viability, T/C: 103%
[9]
  viability, T/C: 64.9%
[10]
  viability, T/C: 0.68%
[11]
  viability, T/C: 0.35%
[12]
  viability, T/C: 0.65%
[13]
  viability, T/C: 91.6%
[14]
  viability, T/C: 91.3%
[15]
  viability, T/C: 62.4%
[16]
  viability, T/C: 0.43%
[17]
  viability, T/C: 0.5%
[18]
  viability, T/C: 0.5%
[19]
  viability, T/C: 92.9%
[20]
  viability, T/C: 96.5%
[21]
  viability, T/C: 52.1%
[22]
  viability, T/C: 0.57%
[23]
  viability, T/C: 0.45%
[24]
  viability, T/C: 0.7%
[25]
  viability, T/C: 88.7%
[26]
  viability, T/C: 94.7%
[27]
  viability, T/C: 32.7%
[28]
  viability, T/C: 0.63%
[29]
  viability, T/C: 0.5%
[30]
  viability, T/C: 0.78%

## CCCS(=O)(=O)Nc1ccc(F)c(C(=O)c2c[nH]c3ncc(-c4ccc(Cl)cc4)cc23)c1F + CCN1CCN(Cc2ccc(Nc3ncc(F)c(-c4cc(F)c5nc(C)n(C(C)C)c5c4)n3)nc2)CC1
Second compound 0.01 µM
  IC50: > 10000 nM
Second compound 0.0316 µM
  IC50: > 10000 nM
Second compound 0.1 µM
  IC50: 7490 nM
Second compound 0.316 µM
  IC50: > 10000 nM
Second compound 1 µM
  IC50: > 10000 nM
Second compound 0.01 µM, first compound 0.0316 µM
  viability, T/C: 99.8%
Second compound 0.01 µM, first compound 0.1 µM
  viability, T/C: 103%
Second compound 0.01 µM, first compound 0.316 µM
  viability, T/C: 95.9%
Second compound 0.01 µM, first compound 1 µM
  viability, T/C: 98.8%
Second compound 0.01 µM, first compound 3.16 µM
  viability, T/C: 112%
Second compound 0.01 µM, first compound 10 µM
  viability, T/C: 81.9%
Second compound 0.0316 µM, first compound 0.0316 µM
  viability, T/C: 97.9%
Second compound 0.0316 µM, first compound 0.1 µM
  viability, T/C: 96.8%
Second compound 0.0316 µM, first compound 0.316 µM
  viability, T/C: 96.8%
Second compound 0.0316 µM, first compound 1 µM
  viability, T/C: 97.2%
Second compound 0.0316 µM, first compound 3.16 µM
  viability, T/C: 97.8%
Second compound 0.0316 µM, first compound 10 µM
  viability, T/C: 74.8%
Second compound 0.1 µM, first compound 0.0316 µM
  viability, T/C: 93.2%
Second compound 0.1 µM, first compound 0.1 µM
  viability, T/C: 87%
Second compound 0.1 µM, first compound 0.316 µM
  viability, T/C: 93.5%
Second compound 0.1 µM, first compound 1 µM
  viability, T/C: 101%
Second compound 0.1 µM, first compound 3.16 µM
  viability, T/C: 93.7%
Second compound 0.1 µM, first compound 10 µM
  viability, T/C: 35.4%
Second compound 0.316 µM, first compound 0.0316 µM
  viability, T/C: 105%
Second compound 0.316 µM, first compound 0.1 µM
  viability, T/C: 95%
Second compound 0.316 µM, first compound 0.316 µM
  viability, T/C: 106%
Second compound 0.316 µM, first compound 1 µM
  viability, T/C: 90.6%
Second compound 0.316 µM, first compound 3.16 µM
  viability, T/C: 103%
Second compound 0.316 µM, first compound 10 µM
  viability, T/C: 78.2%
Second compound 1 µM, first compound 0.0316 µM
  viability, T/C: 99.4%
Second compound 1 µM, first compound 0.1 µM
  viability, T/C: 93.8%
Second compound 1 µM, first compound 0.316 µM
  viability, T/C: 89.1%
Second compound 1 µM, first compound 1 µM
  viability, T/C: 86.3%
Second compound 1 µM, first compound 3.16 µM
  viability, T/C: 94.1%
Second compound 1 µM, first compound 10 µM
  viability, T/C: 61.1%
